Drawing on patent US20110224210A1, “NOVEL BIS-AMIDES AS ANTI-MALARIAL AGENTS” (priority 2008, published 2011), this text covers IC50 for 36 molecules.

Where two headings read alike, the source gives them in different places.

This test deals with P. falciparum K1 (strain resistant to chloroquine and pyrimethamine), erythrocytic stages. Briefly: Plasmodium falciparum in vitro assay, [3H] hypoxanthine incorporation. Format: cell-based. The conditions noted are these: Plasmodium falciparum. The method, then: In Vitro Antimalarial Activity: Plasmodium falciparum In Vitro Assay
In vitro activity against erythrocytic stages of P. falciparum is determined using a [^3H] hypoxanthine incorporation assay. One strain resistant to chloroquine and pyrimethamine (P. falciparum K1) is used in the assays, and all test compounds are compared for activity with the standard drugs chloroquine (sigma C6628) and artemisinin (sigma-36, 159-3). Compounds are diluted in DMSO to 1 mM and added to parasite cultures incubated in RPMI 1640 medium without hypoxanthine, supplemented with HEPES (5.94 g/L), NaHCO3 (2.1 g/L), neomycin (100 U/mL), Albumax (5 g/L) and washed human red cells at 2.5% haematocrit (0.3% parasitaemia). Seven serial doubling dilutions of each compound are prepared in 96-well microtitre plates and incubated in a humidifying atmosphere at 37° C.; 4% CO2, 3% O2, 93% N2.
After 48 h, 50 μl of [3H] hypoxanthine (0.5 μCi) is added to each well of a plate. The plates are incubated for a further 24 h under the same conditions. The plates are then harvested with a Betaplate cell harvester (Wallac) and washed with distilled water. The dried filters are inserted into a plastic foil with 10 mL of scintillation fluid, and counted in a Betaplate liquid scintillation counter. IC50 values are calculated from sigmoidal inhibition curves using Microsoft Excel.

Setting [1] is: K1, P. falciparum strain K1, [3H] hypoxanthine incorporation, read-out: IC50 (nM) on K1.

As to `CN(C)C1CCN(C(=O)C(Cc2cnn(C)c2)N(Cc2ccc(-c3ccccn3)cc2)C(=O)C=Cc2ccc(C(F)(F)F)cc2)CC1` (racemic) [Example 137], under setting [1], the IC50 stood at 413 nM.
On to `CN(C)C1CCN(C(=O)C(Cc2ccn(C)n2)N(Cc2ccc(-c3ccccn3)cc2)C(=O)C=Cc2ccc(C(F)(F)F)cc2)CC1` (racemic) [Example 138], for which, under setting [1], the IC50 came to 340 nM.
Still for that read-out and setting: the same measure for `CN(C)C1CCN(C(=O)C(Cc2cnn(C)c2)N(Cc2ccc(-c3ccncc3)cc2)C(=O)C=Cc2ccc(C(F)(F)F)cc2)CC1` (racemic) [Example 139]: 155 nM; for `CN(C)C1CCN(C(=O)C(Cc2ccn(C)n2)N(Cc2ccc(-c3ccncc3)cc2)C(=O)C=Cc2ccc(C(F)(F)F)cc2)CC1` (racemic) [Example 140]: 191 nM.
As to `CN(C)C1CCN(C(=O)C(Cc2ccnn2C)N(Cc2ccc(-c3ccncc3)cc2)C(=O)C=Cc2ccc(C(F)(F)F)cc2)CC1` (racemic) [Example 141], under setting [1], the IC50 is 339 nM.
As for `CN(C)C1CCN(C(=O)C(Cc2ccnn2C)N(Cc2ccc(-c3ccccn3)cc2)C(=O)C=Cc2ccc(C(F)(F)F)cc2)CC1` (racemic) [Example 142], the IC50 under setting [1] was determined as 460 nM.
Still for that read-out and setting: the same measure for `O=C(NC1CN2CCC1CC2)[C@H](Cc1ccccc1)N(Cc1ccc(-c2ccccn2)cc1)C(=O)C=Cc1ccc(C(F)(F)F)cc1` (mixture of isomers) [Example 152]: 242 nM.
In the case of `COCCN(C)C(=O)C(Cc1cnn(C)c1)N(Cc1ccc(-c2ccccn2)cc1)C(=O)C=Cc1ccc(C(F)(F)F)cc1` (racemic) [Example 164], under setting [1], the IC50 was 247 nM.
`COCCN(C)C(=O)C(Cc1ccn(C)n1)N(Cc1ccc(-c2ccccn2)cc1)C(=O)C=Cc1ccc(C(F)(F)F)cc1` (racemic) [Example 165]: under setting [1], the IC50 came to 76 nM.
Turning to `COCCN(C)C(=O)C(Cc1cnn(C)c1)N(Cc1ccc(-c2ccncc2)cc1)C(=O)C=Cc1ccc(C(F)(F)F)cc1` (racemic) [Example 166], the IC50 under setting [1] is 96 nM.
Still for that read-out and setting: the same measure for `COCCN(C)C(=O)C(Cc1ccn(C)n1)N(Cc1ccc(-c2ccncc2)cc1)C(=O)C=Cc1ccc(C(F)(F)F)cc1` (racemic) [Example 167]: 41 nM; for `COCCN(C)C(=O)C(Cc1ccnn1C)N(Cc1ccc(-c2ccncc2)cc1)C(=O)C=Cc1ccc(C(F)(F)F)cc1` (racemic) [Example 168]: 349 nM.
In the case of `COCCN(C)C(=O)C(Cc1ccon1)N(Cc1ccc(-c2ccncc2)cc1)C(=O)C=Cc1ccc(C(F)(F)F)cc1` (racemic) [Example 169], the IC50 under setting [1] was determined as 312 nM.
In the case of `COCCN(C)C(=O)C(Cc1ncccn1)N(Cc1ccc(-c2ccncc2)cc1)C(=O)C=Cc1ccc(C(F)(F)F)cc1` (racemic) [Example 170], under setting [1], the IC50 amounted to 192 nM.
In the case of `COCCN(C)C(=O)C(CN1CCN(C)CC1)N(Cc1ccc(-c2ccccn2)cc1)C(=O)C=Cc1ccc(C(F)(F)F)cc1` (racemic) [Example 278], the IC50 under setting [1] is 137 nM.
`COCCN(C)C(=O)C(CN1CCOCC1)N(Cc1ccc(-c2ccccn2)cc1)C(=O)C=Cc1ccc(C(F)(F)F)cc1` (racemic) [Example 279]: the IC50 under setting [1] is below 8 nM.
As for `COCCN(C)C(=O)C(CN1CCCC1)N(Cc1ccc(-c2ccccn2)cc1)C(=O)C=Cc1ccc(C(F)(F)F)cc1` (racemic) [Example 280], the IC50 under setting [1] was determined as 219 nM.
For the molecule `COCCN(C)C(=O)C(Cn1ccnc1)N(Cc1ccc(-c2ccccn2)cc1)C(=O)C=Cc1ccc(C(F)(F)F)cc1` (racemic) [Example 281], the IC50 under setting [1] came to 448 nM.
Regarding `COCCN(C)C(=O)C(Cn1cccc1)N(Cc1ccc(-c2ccncc2)cc1)C(=O)C=Cc1ccc(C(F)(F)F)cc1` (racemic) [Example 282], the IC50 under setting [1] was 35 nM.
With `COCCN(C)C(=O)C(CN1C(=O)C(=O)c2ccccc21)N(Cc1ccc(-c2ccncc2)cc1)C(=O)C=Cc1ccc(C(F)(F)F)cc1` (racemic) [Example 283], the IC50 under setting [1] was 324 nM.
Still for that read-out and setting: to `COCCN(C)C(=O)C(CN1CCOC1=O)N(Cc1ccc(-c2ccncc2)cc1)C(=O)C=Cc1ccc(C(F)(F)F)cc1` (racemic) [Example 284] belongs 362 nM; to `C[C@@H]1CC[C@H]2[C@@H](C)C(=O)O[C@@H]3O[C@@]4(C)CC[C@@H]1[C@]32OO4` [Artemisinin], 3 nM.
For `CCN(CC)CCCC(C)Nc1ccnc2cc(Cl)ccc12` (stereo not drawn) [Chloroquine], the IC50 (K1, read-out: IC50 (nM) on K1) was found to be 194 nM.
As for `Cc1nn(C)c(C)c1C=CC(=O)N(Cc1ccc(N2CCOCC2)cc1)[C@@H](Cc1ccccc1)C(=O)N1CCC(N(C)C)CC1` [Example 1, (S)-N-[1-Benzyl-2-(4-dimethylamino-piperidin-1-yl)-2-oxo-ethyl]-N-(4-morpholin-4-yl-benzyl)-3-(1,3,5-trimethyl-1H-pyrazol-4-yl)-acrylamide], the IC50 under setting [1] came to 211 nM.
Same read-out and setting: the same measure for `Cc1nc(C)c(C=CC(=O)N(Cc2ccc(N3CCOCC3)cc2)[C@@H](Cc2ccccc2)C(=O)N2CCC(N(C)C)CC2)s1` [Example 2, (S)-N-[1-Benzyl-2-(4-dimethylamino-piperidin-1-yl)-2-oxo-ethyl]-3-(2,4-dimethyl-thiazol-5-yl)-N-(4-morpholin-4-yl-benzyl)-acrylamide]: 466 nM; for `Cc1noc(C)c1C=CC(=O)N(Cc1ccc(N2CCOCC2)cc1)[C@@H](Cc1ccccc1)C(=O)N1CCC(N(C)C)CC1` [Example 3, (S)-N-[1-Benzyl-2-(4-dimethylamino-piperidin-1-yl)-2-oxo-ethyl]-3-(3,5-dimethyl-isoxazol-4-yl)-N-(4-morpholin-4-yl-benzyl)-acrylamide]: 436 nM.
In the case of `CN(C)C1CCN(C(=O)[C@H](Cc2ccccc2)N(Cc2ccc(N3CCOCC3)cc2)C(=O)C=Cc2ccc(C(F)(F)F)cn2)CC1` [Example 4, (S)-N-[1-Benzyl-2-(4-dimethylamino-piperidin-1-yl)-2-oxo-ethyl]-N-(4-morpholin-4-yl-benzyl)-3-(5-trifluoromethyl-pyridin-2-yl)-acrylamide], the IC50 under setting [1] turned out to be 323 nM.
For the molecule `COc1ccc(C=CC(=O)N(Cc2ccc(N3CCOCC3)cc2)[C@@H](Cc2ccccc2)C(=O)N2CCC(N(C)C)CC2)cn1` [Example 5, (S)-N-[1-Benzyl-2-(4-dimethylamino-piperidin-1-yl)-2-oxo-ethyl]-3-(6-methoxy-pyridin-3-yl)-N-(4-morpholin-4-yl-benzyl)-acrylamide], the IC50 under setting [1] is 319 nM.
On the same count and under the same terms, to `CN(C)C1CCN(C(=O)[C@H](Cc2ccccc2)N(Cc2ccc(-c3ccccn3)cc2)C(=O)C=Cc2ccc(C(F)(F)F)cc2)CC1` [Example 6, (S)-N-[1-Benzyl-2-(4-dimethylamino-piperidin-1-yl)-2-oxo-ethyl]-N-(4-pyridin-2-yl-benzyl)-3-(4-trifluoromethyl-phenyl)-acrylamide] belongs 54 nM; to `CN(C)C1CCN(C(=O)[C@H](Cc2ccccc2)N(Cc2ccc(-c3ccccn3)cc2)C(=O)C=Cc2ccc(C(F)(F)F)nc2)CC1` [Example 7, (S)-N-[1-Benzyl-2-(4-dimethylamino-piperidin-1-yl)-2-oxo-ethyl]-N-(4-pyridin-2-yl-benzyl)-3-(6-trifluoromethyl-pyridin-3-yl)-acrylamide], 14 nM.
Still for that read-out and setting: the same measure for `Cc1cc(C=CC(=O)N(Cc2ccc(-c3ccccn3)cc2)[C@@H](Cc2ccccc2)C(=O)N2CCC(N(C)C)CC2)n(C)n1` [Example 8, (S)-N-[1-Benzyl-2-(4-dimethylamino-piperidin-1-yl)-2-oxo-ethyl]-3-(2,5-dimethyl-2H-pyrazol-3-yl)-N-(4-pyridin-2-yl-benzyl)-acrylamide]: 381 nM; for `Cc1nn(C)c(C)c1C=CC(=O)N(Cc1ccc(-c2ccccn2)cc1)[C@@H](Cc1ccccc1)C(=O)N1CCC(N(C)C)CC1` [Example 9, (S)-N-[1-Benzyl-2-(4-dimethylamino-piperidin-1-yl)-2-oxo-ethyl]-N-(4-pyridin-2-yl-benzyl)-3-(1,3,5-trimethyl-1H-pyrazol-4-yl)-acrylamide]: 69 nM.
Regarding `Cc1nc(C)c(C=CC(=O)N(Cc2ccc(-c3ccccn3)cc2)[C@@H](Cc2ccccc2)C(=O)N2CCC(N(C)C)CC2)s1` [Example 10, (S)-N-[1-Benzyl-2-(4-dimethylamino-piperidin-1-yl)-2-oxo-ethyl]-3-(2,4-dimethyl-thiazol-5-yl)-N-(4-pyridin-2-yl-benzyl)-acrylamide], the IC50 under setting [1] amounted to 176 nM.
In the case of `Cc1nc(C=CC(=O)N(Cc2ccc(-c3ccccn3)cc2)[C@@H](Cc2ccccc2)C(=O)N2CCC(N(C)C)CC2)cs1` [Example 11, (S)-N-[1-Benzyl-2-(4-dimethylamino-piperidin-1-yl)-2-oxo-ethyl]-3-(2-methyl-thiazol-4-yl)-N-(4-pyridin-2-yl-benzyl)-acrylamide], the IC50 under setting [1] was 315 nM.
Turning to `Cc1noc(C)c1C=CC(=O)N(Cc1ccc(-c2ccccn2)cc1)[C@@H](Cc1ccccc1)C(=O)N1CCC(N(C)C)CC1` [Example 12, (S)-N-[1-Benzyl-2-(4-dimethylamino-piperidin-1-yl)-2-oxo-ethyl]-3-(3,5-dimethyl-isoxazol-4-yl)-N-(4-pyridin-2-yl-benzyl)-acrylamide], under setting [1], the IC50 turned out to be 220 nM.
Consider `Cc1nc(C=CC(=O)N(Cc2ccc(-c3ccccn3)cc2)[C@@H](Cc2ccccc2)C(=O)N2CCC(N(C)C)CC2)c(C)o1` [Example 13, (S)-N-[1-Benzyl-2-(4-dimethylamino-piperidin-1-yl)-2-oxo-ethyl]-3-(2,5-dimethyl-oxazol-4-yl)-N-(4-pyridin-2-yl-benzyl)-acrylamide], for which the IC50 under setting [1] was determined as 355 nM.
